Assay results taken from PMC6387968, “An in vitro ADME and in vivo Pharmacokinetic Study of Novel TB-Active Decoquinate Derivatives” (Frontiers in Pharmacology, 2019).

Experiments:
physchem = assay type: physicochemical; conditions: pH 7.4
Description: The plate was agitated for 2 h at 22°C and 500 rpm. […] The different layers were analyzed to obtain a logD value.

in vivo = test: in vivo; set-up: species or system male C57BL/6 mice; conditions: for Vd / clearance / half-life / t1/2 / Cmax / Tmax: male, C57BL/6, mouse; for AUC: mouse
Description: Healthy male C57BL/6 mice, 12 to 16 weeks old, weighing approximately 30 g, were maintained at the animal facility of the University of Cape Town. Mice were fed a standard laboratory diet and water ad libitum. Mice were housed in 27 × 21 × 18 cm cages, under controlled environmental conditions (26 ± 1°C with 12-h light/dark cycles). Mice were acclimatized to their experimental environment for 4 days before the experiment started.
Clear suspensions of RMB041, -043, and -073 were prepared in […] hydroxypropyl methylcellulose and administered via oral gavage (20 mg/kg, volume = 200 μL, n = 3). Blood samples (20 μL) were collected on ice in heparinized microvials via tail bleeding at 0, 0.5, 1, 3, 5, 8, 10, 24, and 48 h following drug administration and stored at -80°C.
Solutions for IV injection (5 mg/kg) were prepared using a mixture of dimethyl acetamide, polyethylene glycol, and polypropylene glycol (1:3:6, v/v) and were injected into the penile vein (80 μL) following anesthesia of mice with intraperitoneal injection (IP) of ketamine/xylazine (75–100 mg/kg + 10 mg/kg; n = 3). Blood samples were collected on ice in heparinized microvials via tail bleeding at 0.083, 0.5, 1, 3, 5, 8, 10, 24, and 48 h following drug administration and stored at -80°C.
Mouse whole-blood samples (20 μL) were each treated with 100 μL ACN containing IS (carbamazepine, 1 μg/mL) to precipitate blood proteins, and were subjected to vigorous vortexing for 1 min and centrifugation at 5590 × g for 5 min. The supernatant layer containing compound (50 μL) was removed from each sample and added to the analysis plate. Thereafter, samples were dried down under nitrogen. A solution of ACN and water (1:1, v:v, 100 μL) was added to each well, and samples were analyzed via LC-MS/MS.
To determine compound concentrations in mouse whole-blood samples, seven calibration samples (range 0.980 to 4000 ng/mL), as well as low-, medium-, and high-concentration quality control (QC) samples (3, 1600, and 3200 ng/mL, respectively) were prepared in mouse blood and subjected to ACN precipitation as described above, in triplicate. Calibration, QC, and test samples were analyzed via LC-MS/MS. Calibration samples were used to plot standard curves, from which test sample concentrations were calculated via quadratic regression (weighting factor = 1/x).
A reverse-phase HPLC column (Gemini NX, C18, 2.6 μm, 50 × 2.1 mm, Phenomenex) was used to separate the compounds and IS (mobile phase B, 0.1% FA in ACN; mobile phase A, 0.1% FA in analytical-grade water). Auto-sampling was performed using an Agilent 1200 series auto-sampler. Data acquisition and evaluation were performed using the Analyst 1.6.2 software (Applied Biosystems, Foster City, CA, United States).
Plots of concentration against time were used to determine the maximal drug concentration (Cmax), time at which Cmax is reached (Tmax), area-under-the-curve from time zero to infinity (AUC0-∞), and the elimination half-life (t1/2). Using these values, the clearance, volume of distribution, and oral bioavailability (BA) were calculated using the non-compartmental analysis (NCA) software PK Solutions version 2.0 (Summit Research Services, Montrose, CO, United States).
The drug concentrations indicated in Figure 2–7 were used to calculate the PK parameters in Table 6 via NCA. Here, the area under the murine whole-blood concentration-time graph is divided into sequential trapezoids that are summed to determine the AUC, which is used to determine t1/2, apparent volume of distribution (Vd), clearance, and percentage BA.

in vitro = in vitro ADME
Description: Compound solutions prepared in DMSO were diluted in phosphate buffer (final concentration = 1 μg/mL), and were spiked into human plasma and microsomal fractions (total volume = 1 mL). Aliquots were then transferred in duplicate to: (i) a final concentration plate that was immediately quenched with 23.6 ng/mL internal standard (IS, carbamazepine) in ACN, (ii) a degradation control, which was placed in a water bath at 37°C for 4 h, and (iii) ultracentrifuge tubes, which were centrifuged for 4 h at 37°C and 30 000 × g. All reactions were stopped by the addition of ACN containing 23.6 ng/mL carbamazepine. The samples were subjected to liquid chromatography-tandem mass spectrometry (LC-MS/MS) analysis on an AB Sciex 4000 Q Trap hybrid triple quadrupole linear ion-trap MS (AB Sciex, Framingham, MA, United States) coupled to an Agilent 1200 HPLC (Agilent) with a reverse-phase Gemini-C18 analytical column (5 μm, 50 mm × 2 mm; Phenomenex) at 35°C. Mobile phases comprised 0.1% FA in water, and 0.1% FA in ACN. The flow rate was 600 μL/min with a run time of 6 min. A gradient elution was employed (Table 2).

[1] = human, plasma, Plasma protein (fraction unbound)
[2] = human, plasma, percentage plasma protein binding

Row | SMILES | logD (physchem) | Vd (in vivo; iv, 5 mg/kg) [L/kg] | clearance (in vivo; iv, 5 mg/kg) [mL/min/kg] | half-life (in vivo; iv, 5 mg/kg) [h] | t1/2 (in vivo; iv, 5 mg/kg) [h] | Cmax (in vivo; po, 20 mg/kg) [µM] | Tmax (in vivo; po, 20 mg/kg) [h] | half-life (in vivo; po, 20 mg/kg) [h] | AUC (in vivo; iv, 5 mg/kg) [µmol·min/L] | fraction unbound at 4 h, 1 μg/mL (in vitro; human, microsomes) | fraction unbound at 4 h, 1 μg/mL (in vitro; [1]) | fraction unbound at 4 h, 1 μg/mL (in vitro; [2]) | fraction unbound at 4 h, 1 μg/mL (in vitro; microsomes)
1 | CCCCCCCCCCOc1cc2c(=O)c(C(=O)NCCOCCO)cn(CC)c2cc1OCC [RMB041] | 0.48 | 1.2 ± 0.03 | 0.385 | 62.3 ± 6.73 | 62.3 ± 6.7 | 5.4 ± 0.4 | 0.5 | 23.4 ± 2.5 | 29250.4 ± 309.0 | 0.053 | 0.1 | 0.104 | 0.06
2 | CCCCCCCCCCOc1cc2c(=O)c(C(=O)NCCNCCO)cn(CC)c2cc1OCC [RMB043] | 0.84 | 4.6 ± 1.6 | 1.18 | 8.6 ± 0.4 | 8.6 ± 0.4 | 5.6 ± 1.4 | 0.5 | 6.2 ± 0.8 | 10068.4 ± 127.8 | 0.053 | 0.23 | 0.221 | 0.06
3 | CCCCCCCCCCOc1cc2c(=O)c(C(=O)NCCOCCO)cn(CCO)c2cc1OCC [RMB073] | 0.36 | 3.9 ± 0.5 | 0.575 | 15.3 ± 3.2 | 15.3 ± 3.2 | 2 ± 0.03 | 0.5 | 11.6 ± 1.3 | 15940.0 ± 400.0 | 0.114 | 0.16 | 0.156 | 0.11
